Laboratory results reported in PubChem BioAssay AID1963449 (Molecular Pharmacology Branch, DTP, NCI, 2024).

System: 596521-263-R-J1-PDC complex spheroid growth
Experiment: Anticancer human tumor 596521-263-R-J1-PDC patient-derived soft tissue sarcoma cell line growth inhibition [Asc]
Conditions: for IC50: curve of first compound; for viability, T/C: stronger effect = lower value
Procedure, shortened: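 Tumor cells were grown as multicellular spheroids with stromal HUVEC and mesenchymal stem cells and treated singly or in combination. Concentrations fell in half-log steps from the clinical Cmax, or from 10 microM where none was known.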
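Further: spheroids exposed to compounds for 7 days.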

- IC50 (second compound 0.00949 µM): 32.9 nM
- IC50 (second compound 0.03 µM): 33.6 nM
- IC50 (second compound 0.0949 µM): 37.4 nM
- IC50 (second compound 0.3 µM): 29.4 nM
- IC50 (second compound 0.949 µM): 35.1 nM
- IC50 (second compound 3 µM): 28.2 nM
Compound: NC(=O)C(=Cn1cnc(-c2cc(C(F)(F)F)cc(C(F)(F)F)c2)n1)c1cncnc1 + CCN1C(C(=O)NC23CCC(C(=O)O)(CC2)CC3)C(c2cccc(Cl)c2F)C2(C(=O)Nc3cc(Cl)ccc32)C12CCCCC2
- viability, T/C (second compound 0.00949 µM, first compound 0.000949 µM): 92%
- viability, T/C (second compound 0.00949 µM, first compound 0.003 µM): 97.2%
- viability, T/C (second compound 0.00949 µM, first compound 0.00949 µM): 68.5%
- viability, T/C (second compound 0.00949 µM, first compound 0.03 µM): 61.4%
- viability, T/C (second compound 0.00949 µM, first compound 0.0949 µM): 15.4%
- viability, T/C (second compound 0.00949 µM, first compound 0.3 µM): 10.3%
- viability, T/C (second compound 0.03 µM, first compound 0.000949 µM): 102%
- viability, T/C (second compound 0.03 µM, first compound 0.003 µM): 96.3%
- viability, T/C (second compound 0.03 µM, first compound 0.00949 µM): 78.8%
- viability, T/C (second compound 0.03 µM, first compound 0.03 µM): 56.8%
- viability, T/C (second compound 0.03 µM, first compound 0.0949 µM): 20.4%
- viability, T/C (second compound 0.03 µM, first compound 0.3 µM): 11.5%
- viability, T/C (second compound 0.0949 µM, first compound 0.000949 µM): 112%
- viability, T/C (second compound 0.0949 µM, first compound 0.003 µM): 108%
- viability, T/C (second compound 0.0949 µM, first compound 0.00949 µM): 87.8%
- viability, T/C (second compound 0.0949 µM, first compound 0.03 µM): 61.4%
- viability, T/C (second compound 0.0949 µM, first compound 0.0949 µM): 17.1%
- viability, T/C (second compound 0.0949 µM, first compound 0.3 µM): 10.3%
- viability, T/C (second compound 0.3 µM, first compound 0.000949 µM): 127%
- viability, T/C (second compound 0.3 µM, first compound 0.003 µM): 91.7%
- viability, T/C (second compound 0.3 µM, first compound 0.00949 µM): 77.3%
- viability, T/C (second compound 0.3 µM, first compound 0.03 µM): 56.6%
- viability, T/C (second compound 0.3 µM, first compound 0.0949 µM): 18%
- viability, T/C (second compound 0.3 µM, first compound 0.3 µM): 8.14%
- viability, T/C (second compound 0.949 µM, first compound 0.000949 µM): 104%
- viability, T/C (second compound 0.949 µM, first compound 0.003 µM): 102%
- viability, T/C (second compound 0.949 µM, first compound 0.00949 µM): 79.6%
- viability, T/C (second compound 0.949 µM, first compound 0.03 µM): 61%
- viability, T/C (second compound 0.949 µM, first compound 0.0949 µM): 16.3%
- viability, T/C (second compound 0.949 µM, first compound 0.3 µM): 11.4%
- viability, T/C (second compound 3 µM, first compound 0.000949 µM): 88.2%
- viability, T/C (second compound 3 µM, first compound 0.003 µM): 88.3%
- viability, T/C (second compound 3 µM, first compound 0.00949 µM): 74.3%
- viability, T/C (second compound 3 µM, first compound 0.03 µM): 48.4%
- viability, T/C (second compound 3 µM, first compound 0.0949 µM): 22%
- viability, T/C (second compound 3 µM, first compound 0.3 µM): 9.41%
